Laboratory results published in US11638706B2, “Methods for treating Huntington's disease” (PTC Therapeutics, Inc., priority 2015, dated 2023).

System: Huntingtin protein (HTT)
Experiment: Endogenous Huntingtin Protein Assay (MSD electrochemiluminescence ELISA; MW1 or MAB2166 capture, #5656S detection)
Assay type: cell-based, human
Method: The Endogenous Huntingtin Protein assay used in Example 2 was developed using the Best Pair antibodies identified in Table 2, providing highly sensitive, high-throughput detection assays for polyglutamine-expanded (mHTT) and total human HTT in multiple cell systems. The platform used for the assay is the ELISA-based Meso Scale Discovery (MSD) electrochemiluminescence assay platform.
Meso Scale Discovery (MSD) 96-well or 384-well plates were coated overnight at 4° C. with MW1 (expanded polyglutamine) or MAB2166 monoclonal antibody (for capture) at a concentration of 1 μg/mL in PBS (30 μL per well). Plates were then washed three times with 300 μL wash buffer (0.05% Tween-20 in PBS) and blocked (100 μL blocking buffer; 5% BSA in PBS) for 4-5 hours at room temperature with rotational shaking and then washed three times with wash buffer.
Samples (25 μL) were transferred to the antibody-coated MSD plate and incubated overnight at 4° C. After removal of the lysates, the plate was washed three times with wash buffer, and 25 μL of #5656S (Cell signaling; rabbit monoclonal) secondary antibody (diluted to 0.25 μg/mL in 0.05% Tween-20 in blocking buffer) was added to each well and incubated with shaking for 1 Hour at room temperature. Following incubation with the secondary antibody, the wells were rinsed with wash buffer after which 25 μL of goat anti-rabbit SULFO TAG secondary detection antibody (required aspect of the MSD system) (diluted to 0.25 μg/mL in 0.05% Tween-20 in blocking buffer) was added to each well and incubated with shaking for 1 hour at room temperature. After rinsing three times with wash buffer, 150 μL of read buffer T with surfactant (MSD) were added to each empty well, and the plate was imaged on a SI 6000 imager (MSD) according to manufacturers' instructions provided for 96- or 384-well plates.

Row | Compound | IC50 [nM]
1 | 3-[2-methoxy-4-(1H-pyrazol-1-yl)phenyl]-6-[(2,2,6,6-tetramethylpiperidin-4-yl)oxy]pyridazine [Cpd 447] | 3000 to 9000
2 | 5-(3,5-dimethyl-1H-pyrazol-4-yl)-2-{6-[(2,2,6,6-tetramethylpiperidin-4-yl)oxy]pyridazin-3-yl}phenol [Cpd 451] | 3000 to 9000
3 | 5-(5-methyl-1H-pyrazol-4-yl)-2-{6-[(2,2,6,6-tetramethylpiperidin-4-yl)oxy]pyridazin-3-yl}phenol [Cpd 418] | ≤ 100
4 | CN(c1ccc(-c2ccc3nccn3c2)nn1)C1CC(C)(C)NC(C)(C)C1 [Cpd 16, 6-(imidazo[1,2-a]pyridin-6-yl)-N-methyl-N-(2,2,6,6-tetramethylpiperidin-4-yl)pyridazin-3-amine] | 3000 to 9000
5 | CN(c1ccc(-c2cc3ccccc3cc2O)nn1)C1CC(C)(C)NC(C)(C)C1 [Cpd 26, 3-(6-(methyl(2,2,6,6-tetramethylpiperidin-4-yl)amino)pyridazin-3-yl)naphthalen-2-ol] | 100 to 500
6 | CC1(C)CC(Oc2ccc(-c3cc4ccccc4cc3O)nn2)CC(C)(C)N1 [Cpd 31, 3-(6-((2,2,6,6-tetramethylpiperidin-4-yl)oxy)pyridazin-3-yl)naphthalen-2-ol] | 100 to 500
7 | CN(c1ccc(-c2ccc(C#N)cc2O)nn1)C1CC(C)(C)NC(C)(C)C1 [Cpd 39, 3-hydroxy-4-(6-(methyl(2,2,6,6-tetramethylpiperidin-4-yl)amino)pyridazin-3-yl)benzonitrile] | 3000 to 9000
8 | Cc1cnc(-c2ccc(-c3ccc(N(C)C4CC(C)(C)NC(C)(C)C4)nn3)c(O)c2)o1 [Cpd 44, 5-(5-methyl-oxazol-2-yl)-2-(6-(methyl-(2,2,6,6-tetramethylpiperidin-4-yl)-amino)-pyridazin-3-yl)phenol] | ≤ 100
9 | CN(c1ccc(-c2ccc(-n3ccnc3)cc2O)nn1)C1CC(C)(C)NC(C)(C)C1 [Cpd 46, 5-(1H-imidazol-1-yl)-2-(6-(methyl(2,2,6,6-tetramethylpiperidin-4-yl)amino)pyridazin-3-yl)phenol] | ≤ 100
10 | CN(c1ccc(-c2ccc(-n3cc(N)cn3)cc2O)nn1)C1CC(C)(C)NC(C)(C)C1 [Cpd 47, 5-(4-amino-1H-pyrazole-1-yl)-2-(6-(methyl(2,2,6,6-tetramethylpiperidin-4-yl)amino)pyridazin-3-yl)phenol] | 100 to 500
11 | CN(c1ccc(-c2ccc(-c3cn[nH]c3)cc2O)nn1)C1CC(C)(C)NC(C)(C)C1 [Cpd 48, 2-(6-(methyl(2,2,6,6-tetramethylpiperidin-4-yl)amino)pyridazin-3-yl)-5-(1H-pyrazol-4-yl)phenol] | ≤ 100
12 | CN(c1ccc(-c2ccc(-c3cnn(C)c3)cc2O)nn1)C1CC(C)(C)NC(C)(C)C1 [Cpd 51, 2-(6-(methyl(2,2,6,6-tetramethylpiperidin-4-yl)amino)pyridazin-3-yl)-5-(1-methyl-1H-pyrazol-4-yl)phenol] | ≤ 100
13 | CC1(C)CC(Oc2ccc(-c3ccc(-n4cccn4)cc3O)nn2)CC(C)(C)N1 [Cpd 63, 5-1H-pyrazol-1-yl-2-(6-(2,2,6,6-tetramethylpiperidin-4-yl-oxy)-pyridazin-3-yl)phenol] | ≤ 100
14 | CC1(C)CC(Oc2ccc(-c3ccc(-c4cn[nH]c4)cc3O)nn2)CC(C)(C)N1 [Cpd 64, 5-(1H-pyrazol-4-yl)-2-(6-((2,2,6,6-tetramethylpiperidin-4-yl)oxy)pyridazin-3-yl)phenol] | ≤ 100
15 | CN(c1ccc(-c2ccc(-c3ccnc(O)c3)cc2O)nn1)C1CC(C)(C)NC(C)(C)C1 [Cpd 170, 4-(3-hydroxy-4-(6-(methyl(2,2,6,6-tetramethylpiperidin-4-yl)amino)pyridazin-3-yl)phenyl)pyridin-2-ol] | ≤ 100
16 | CC1(C)CC(Oc2ccc(-c3ccc(-c4ccnc(O)c4)cc3O)nn2)CC(C)(C)N1 [Cpd 176, 4-(3-hydroxy-4-(6-((2,2,6,6-tetramethylpiperidin-4-yl)oxy)pyridazin-3-yl)phenyl)pyridin-2-ol] | ≤ 100
17 | Oc1cc(-c2cn[nH]c2)ccc1-c1ccc(N2C[C@H]3CNC[C@H]3C2)nn1 [Cpd 200, 2-(6-((3aR,6aS)-hexahydropyrrolo[3,4-c]pyrrol-2(1H)-yl)pyridazin-3-yl)-5-(1H-pyrazol-4-yl)phenol] | ≤ 100
18 | CN(c1ccc(-c2cc3cccnc3cc2O)nn1)C1CC(C)(C)NC(C)(C)C1 [Cpd 207, 6-(6-(methyl(2,2,6,6-tetramethylpiperidin-4-yl)amino)pyridazin-3-yl)quinolin-7-ol] | 100 to 500
19 | CN(c1ccc(-c2cc3cnccc3cc2O)nn1)C1CC(C)(C)NC(C)(C)C1 [Cpd 212, 7-(6-(methyl(2,2,6,6-tetramethylpiperidin-4-yl)amino)pyridazin-3-yl)isoquinolin-6-ol] | ≤ 100
20 | CN(c1ccc(-c2cc3ccncc3cc2O)nn1)C1CC(C)(C)NC(C)(C)C1 [Cpd 218, 6-(6-(methyl(2,2,6,6-tetramethylpiperidin-4-yl)amino)pyridazin-3-yl)isoquinolin-7-ol] | ≤ 100

Row | Compound | IC50 [nM]
21 | CN(c1ccc(-c2cc3cncnc3cc2O)nn1)C1CC(C)(C)NC(C)(C)C1 [Cpd 258, 6-(6-(methyl(2,2,6,6-tetramethylpiperidin-4-yl)amino)pyridazin-3-yl)quinazolin-7-ol] | 100 to 500
22 | COc1cc(-c2cn[nH]c2)ccc1-c1nnc(N(C)C2CC(C)(C)NC(C)(C)C2)s1 [Cpd 307] | 100 to 500
23 | CN(c1nnc(-c2ccc(-c3cnn(C)c3)cc2O)s1)C1CC(C)(C)NC(C)(C)C1 [Cpd 315] | ≤ 100
24 | CN(c1nnc(-c2ccc(-c3ccn(C)c(=O)c3)cc2O)s1)C1CC(C)(C)NC(C)(C)C1 [Cpd 318] | ≤ 100
25 | CN(c1nnc(-c2ccc(-c3cn[nH]c3)c(F)c2F)s1)C1CC(C)(C)NC(C)(C)C1 [Cpd 348] | ≤ 100
26 | CN(c1nnc(-c2cc(F)c(-c3cn[nH]c3)cc2F)s1)C1CC(C)(C)NC(C)(C)C1 [Cpd 350] | ≤ 100
27 | CN(c1nnc(-c2c(F)cc(-c3cn[nH]c3)cc2F)s1)C1CC(C)(C)NC(C)(C)C1 [Cpd 352] | 100 to 500
28 | CN(c1nnc(-c2ccc(-c3cn[nH]c3)cc2O)s1)C1CC(C)(C)NC(C)(C)C1 [Cpd 393] | ≤ 100
29 | CN(c1ccc(-c2ccc(-c3cn[nH]c3)cc2O)nn1)C1C[C@H]2CC[C@@H](C1)N2 (stereo partly drawn) [Cpd 411, 2-{6-[(1R,5S)-8-azabicyclo[3.2.1]oct-3-yl(methyl)amino]pyridazin-3-yl}-5-(1H-pyrazol-4-yl)phenol] | ≤ 100
30 | Oc1cc(-c2cn[nH]c2)ccc1-c1ccc(NC2C[C@H]3CC[C@@H](C2)N3)nn1 (stereo partly drawn) [Cpd 412, 2-[6-((1R,5S)-8-azabicyclo[3.2.1]oct-3-ylamino)pyridazin-3-yl]-5-(1H-pyrazol-4-yl)phenol] | ≤ 100
31 | CC1(C)CC(Nc2ccc(-c3ccc(-c4cn[nH]c4)cc3O)nn2)CC(C)(C)N1 [Cpd 413, 5-(1H-pyrazol-4-yl)-2-{6-[(2,2,6,6-tetramethylpiperidin-4-yl)amino]pyridazin-3-yl}phenol] | ≤ 100
32 | Cn1cc(-c2ccc(-c3ccc(OC4CC(C)(C)NC(C)(C)C4)nn3)c(O)c2)cn1 [Cpd 414, 5-(1-methyl-1H-pyrazol-4-yl)-2-{6-[(2,2,6,6-tetramethylpiperidin-4-yl)oxy]pyridazin-3-yl}phenol] | ≤ 100
33 | Oc1cc(-c2cn[nH]c2)ccc1-c1ccc(OC2C[C@H]3CC[C@@H](C2)N3)nn1 (stereo partly drawn) [Cpd 415, 2-[6-((1R,5S)-8-azabicyclo[3.2.1]oct-3-yloxy)pyridazin-3-yl]-5-(1H-pyrazol-4-yl)phenol] | ≤ 100
34 | Cc1[nH]ncc1-c1ccc(-c2ccc(N(C)C3CC(C)(C)NC(C)(C)C3)nn2)c(O)c1 [Cpd 416, 5-(5-methyl-1H-pyrazol-4-yl)-2-{6-[methyl(2,2,6,6-tetramethylpiperidin-4-yl)amino]pyridazin-3-yl}phenol] | ≤ 100
35 | CC1(C)CC(Oc2ccc(-c3ccc(-n4ccnc4)cc3O)nn2)CC(C)(C)N1 [Cpd 417, 5-(1H-imidazol-1-yl)-2-{6-[(2,2,6,6-tetramethylpiperidin-4-yl)oxy]pyridazin-3-yl}phenol] | ≤ 100
36 | CN(c1ccc(-c2ccc(-n3cc([N+](=O)[O-])cn3)cc2O)nn1)C1CC(C)(C)NC(C)(C)C1 [Cpd 419, 2-{6-[methyl(2,2,6,6-tetramethylpiperidin-4-yl)amino]pyridazin-3-yl}-5-(4-nitro-1H-pyrazol-1-yl)phenol] | ≤ 100
37 | COc1cc(-n2cc([N+](=O)[O-])cn2)ccc1-c1ccc(N(C)C2CC(C)(C)NC(C)(C)C2)nn1 [Cpd 420, 6-[2-methoxy-4-(4-nitro-1H-pyrazol-1-yl)phenyl]-N-methyl-N-(2,2,6,6-tetramethylpiperidin-4-yl)pyridazin-3-amine] | ≤ 100
38 | CC1(C)CC(Oc2ccc(-c3ccc(-n4cc(N)cn4)cc3O)nn2)CC(C)(C)N1 [Cpd 421, 5-(4-amino-1H-pyrazol-1-yl)-2-{6-[(2,2,6,6-tetramethylpiperidin-4-yl)oxy]pyridazin-3-yl}phenol] | ≤ 100
39 | CN1CC=C(c2ccc(-c3ccc(-c4cn[nH]c4)cc3O)nn2)CC1 [Cpd 422, 2-[6-(1-methyl-1,2,3,6-tetrahydropyridin-4-yl)pyridazin-3-yl]-5-(1H-pyrazol-4-yl)phenol] | ≤ 100
